Results published in US12410152B2, “Oxazole and thioazole-type cullin ring ubiquitin ligase compounds and uses thereof” (Proxygen GmbH, priority 2019, dated 2025).

Legend:
[1] = test system: T1, cyclin K (CCNK) (Homo sapiens); assay: CCNK destabilization/degradation (expression proteomics and Western blot); format: cell-based; conditions: wild-type KBM7 cells
T1 construct: endogenous in cells; host or cells: KBM7 cells (WT and UBE2M/CUL4B/UBE2G1 mutant clones)
Protocol: (§1) The hypomorphic phenotype of the mutated UBE2M allele in KBM7 cells (KBM7 UBE2M^mut cells) was assessed. In this regard, CRISPR/Cas9-induced mutation of UBE2M inactivated CRL activity including CRL4^CRBN and CRL2^VHL. […] Additionally, CCNK destabilization by all three compounds was validated via time-resolved immunoblots wherein CCNK degradation was evident after two hours (FIG. 19c).
(§2) Subsequently, a total of 53 structurally related analogue compounds in dose-ranging viability assays in KBM7 wildtype- and UBE2M^mut cells was tested to develop a structure-activity relationship for the assayed compounds. This informed on sites amenable for derivatization of analogs (FIG. 20a), and also to the identification of structurally similar small molecules with no measurable activity that are thus suited negative controls. […] CRL activity-dependent degradation of CCNK could be rescued by pharmacologic NAE inhibition and by blocking the ubiquitin activating enzyme UBA1, particularly by pretreating the cells with 1 μM carfilzomib (Selleckchem, S2853), 1 μM MLN4924 (Selleckchem, S7109), 10 μM TAK-243 (MedChemExpress, HY-100487) or 1 μM THZ531 (MedChemExpress HY-103618) (FIG. 19d). Furthermore, treatment with the selective covalent CDK12/13 inhibitor THZ531, which binds to the ATP binding pocket of CDK12/13, rescued CCNK degradation (FIG. 19d) indicating the role of the active site of CDK12/13 for CRL activity-dependent CCNK degradation by the identified compounds (FIG. 19d).
(§3) PBS-washed cell pellets were lysed in 50 mM Tris pH 7.9, 8M Urea and 1% CHAPS and incubated with shaking at 4° C. for at least 30 min. 20 μg of supernatants were run and transferred for detection. Antibodies used: CUL1 (Santa Cruz Biotechnology, sc-1276), CUL2 (Sigma-Aldrich, SAB2501565-100), CUL3 (Cell Signaling Technology, 2759), CUL4A (Cell Signaling Technology, 2699S), CUL4B (Proteintech, 12916-1-AP), CUL5 (Santa Cruz Biotechnology, sc-373822), UBE2M (Santa Cruz Biotechnology, sc-390064), DDB1 (Cell Signaling Technology, 5428S), CCNK (Bethyl, A301-939A), CDK12 (Cell Signaling Technology, 11973S), CDK13 (Bethyl, A301-458A), RBM39 (1:500, Santa Cruz Biotechnology sc-376531), V5 (Cell Signaling Technology, 13202), Ubiquityl-Histone H2A (K119) (Cell Signaling, 8240-20). ACTIN (Sigma-Aldrich, A5441), VINCUL1N (Santa Cruz Biotechnology, sc-25336). Secondary antibodies anti-mouse/rabbit/goat (Jackson ImmunoResearch 115-035-003, 111-035-003 and 705-035-003).
(§4) Comparison of overall proteome-wide changes in KBM7 cells treated with IC020772.1 (2.5 μM), IC021313.2 (7 μM) or T6938051 (3.5 μM) for 5 h and 12h, using quantitative proteomics based on isobaric tagging.

cyclin K (CCNK) = target: T2, cyclin K (CCNK) (Homo sapiens, UniProt Q16531+Q9NYV4); assay: as above; format: cell-based; conditions: for effect on CCNK upon inactivation of DDB1, UBE2G1 and UBE2M: CRISPR-inactivated KBM7 cells
T2 construct: endogenous in cells; host or cells: KBM7 cells (WT and UBE2M/CUL4B/UBE2G1 mutant clones)
T2 sequence (O75909 whole entry partner): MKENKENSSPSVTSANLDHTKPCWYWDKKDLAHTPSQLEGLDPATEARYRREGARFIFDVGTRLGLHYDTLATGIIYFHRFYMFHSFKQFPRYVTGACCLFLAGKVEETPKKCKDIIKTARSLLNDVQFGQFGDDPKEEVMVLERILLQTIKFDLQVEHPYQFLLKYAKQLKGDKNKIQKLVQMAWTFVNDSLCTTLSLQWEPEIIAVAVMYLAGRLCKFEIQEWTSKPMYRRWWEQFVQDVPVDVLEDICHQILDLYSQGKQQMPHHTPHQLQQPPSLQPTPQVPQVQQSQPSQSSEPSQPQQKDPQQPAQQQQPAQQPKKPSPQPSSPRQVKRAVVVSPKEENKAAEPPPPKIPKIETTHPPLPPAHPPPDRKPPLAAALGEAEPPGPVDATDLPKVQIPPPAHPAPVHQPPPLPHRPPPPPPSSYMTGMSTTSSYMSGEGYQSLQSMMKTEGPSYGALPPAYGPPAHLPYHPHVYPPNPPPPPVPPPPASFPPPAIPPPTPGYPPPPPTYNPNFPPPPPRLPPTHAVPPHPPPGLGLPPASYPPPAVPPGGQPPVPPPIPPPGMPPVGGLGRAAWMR
T2 sequence (Q9NYV4 whole entry): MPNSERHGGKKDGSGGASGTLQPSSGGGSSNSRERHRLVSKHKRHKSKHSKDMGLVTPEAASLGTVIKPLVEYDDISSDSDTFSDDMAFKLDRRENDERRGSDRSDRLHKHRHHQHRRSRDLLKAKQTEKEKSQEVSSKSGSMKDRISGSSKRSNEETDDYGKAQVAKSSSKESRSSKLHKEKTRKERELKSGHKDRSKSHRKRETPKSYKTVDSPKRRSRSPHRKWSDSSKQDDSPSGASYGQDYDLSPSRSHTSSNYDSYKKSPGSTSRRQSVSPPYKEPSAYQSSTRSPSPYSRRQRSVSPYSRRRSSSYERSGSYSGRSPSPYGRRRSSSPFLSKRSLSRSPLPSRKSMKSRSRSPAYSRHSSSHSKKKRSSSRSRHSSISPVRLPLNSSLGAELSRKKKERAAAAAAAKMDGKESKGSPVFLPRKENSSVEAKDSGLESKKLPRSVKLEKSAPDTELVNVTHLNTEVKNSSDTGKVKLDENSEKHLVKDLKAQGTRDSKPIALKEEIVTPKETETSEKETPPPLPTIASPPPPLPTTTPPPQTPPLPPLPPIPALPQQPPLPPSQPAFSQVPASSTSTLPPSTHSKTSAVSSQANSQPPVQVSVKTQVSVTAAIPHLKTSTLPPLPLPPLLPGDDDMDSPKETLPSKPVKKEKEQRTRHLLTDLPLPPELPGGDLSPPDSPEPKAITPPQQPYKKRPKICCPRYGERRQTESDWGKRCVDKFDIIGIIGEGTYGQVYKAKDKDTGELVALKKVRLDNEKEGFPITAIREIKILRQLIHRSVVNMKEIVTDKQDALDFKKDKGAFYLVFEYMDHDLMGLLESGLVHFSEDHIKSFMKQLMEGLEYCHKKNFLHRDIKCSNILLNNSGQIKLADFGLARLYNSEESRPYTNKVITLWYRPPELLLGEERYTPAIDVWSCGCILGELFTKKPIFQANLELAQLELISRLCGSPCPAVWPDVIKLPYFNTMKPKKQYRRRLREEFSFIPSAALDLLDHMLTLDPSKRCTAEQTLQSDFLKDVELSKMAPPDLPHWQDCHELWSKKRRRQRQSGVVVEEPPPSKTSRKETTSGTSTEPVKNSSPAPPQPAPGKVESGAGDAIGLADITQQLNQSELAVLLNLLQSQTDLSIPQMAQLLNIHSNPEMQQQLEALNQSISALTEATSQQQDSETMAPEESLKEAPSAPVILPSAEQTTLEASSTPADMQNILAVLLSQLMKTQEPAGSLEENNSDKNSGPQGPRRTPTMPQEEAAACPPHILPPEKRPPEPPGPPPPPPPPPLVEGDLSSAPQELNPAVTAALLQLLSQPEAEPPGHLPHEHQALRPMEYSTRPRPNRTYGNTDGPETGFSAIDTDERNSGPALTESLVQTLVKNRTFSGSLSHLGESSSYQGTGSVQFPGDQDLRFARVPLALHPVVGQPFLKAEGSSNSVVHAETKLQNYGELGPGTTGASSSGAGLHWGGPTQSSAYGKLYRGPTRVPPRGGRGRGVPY
T2 sequence (Q16531 2-1140 limits assumed): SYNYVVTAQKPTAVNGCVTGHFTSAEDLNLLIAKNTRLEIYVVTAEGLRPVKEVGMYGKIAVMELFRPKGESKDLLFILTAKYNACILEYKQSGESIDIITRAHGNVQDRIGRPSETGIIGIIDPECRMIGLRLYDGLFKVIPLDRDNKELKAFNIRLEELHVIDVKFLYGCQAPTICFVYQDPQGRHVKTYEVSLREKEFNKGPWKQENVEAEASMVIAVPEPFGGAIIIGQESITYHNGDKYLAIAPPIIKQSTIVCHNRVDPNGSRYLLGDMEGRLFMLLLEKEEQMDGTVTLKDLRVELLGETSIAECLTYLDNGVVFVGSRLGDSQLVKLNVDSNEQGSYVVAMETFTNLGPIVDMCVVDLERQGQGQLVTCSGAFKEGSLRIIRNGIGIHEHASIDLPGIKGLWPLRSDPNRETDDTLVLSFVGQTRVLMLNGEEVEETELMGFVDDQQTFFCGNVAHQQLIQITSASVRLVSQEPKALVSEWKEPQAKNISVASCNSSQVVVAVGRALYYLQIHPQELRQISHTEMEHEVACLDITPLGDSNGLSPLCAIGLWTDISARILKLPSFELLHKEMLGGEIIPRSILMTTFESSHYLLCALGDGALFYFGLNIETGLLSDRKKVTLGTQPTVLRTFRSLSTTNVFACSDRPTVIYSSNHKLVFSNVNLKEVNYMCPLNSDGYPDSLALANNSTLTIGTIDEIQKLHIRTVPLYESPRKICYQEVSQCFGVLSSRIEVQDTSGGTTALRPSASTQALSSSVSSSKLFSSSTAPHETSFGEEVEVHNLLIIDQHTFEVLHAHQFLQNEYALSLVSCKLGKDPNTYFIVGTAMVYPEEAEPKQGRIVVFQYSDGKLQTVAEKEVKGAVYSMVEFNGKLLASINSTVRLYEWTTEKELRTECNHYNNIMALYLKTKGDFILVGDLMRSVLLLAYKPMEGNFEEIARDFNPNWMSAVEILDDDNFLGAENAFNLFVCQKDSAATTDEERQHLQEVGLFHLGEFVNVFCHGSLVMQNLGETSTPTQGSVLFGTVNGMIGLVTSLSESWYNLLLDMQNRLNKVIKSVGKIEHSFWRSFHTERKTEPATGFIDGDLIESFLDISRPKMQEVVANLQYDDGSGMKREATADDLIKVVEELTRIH
T2 sequence (Q13620 whole entry partner): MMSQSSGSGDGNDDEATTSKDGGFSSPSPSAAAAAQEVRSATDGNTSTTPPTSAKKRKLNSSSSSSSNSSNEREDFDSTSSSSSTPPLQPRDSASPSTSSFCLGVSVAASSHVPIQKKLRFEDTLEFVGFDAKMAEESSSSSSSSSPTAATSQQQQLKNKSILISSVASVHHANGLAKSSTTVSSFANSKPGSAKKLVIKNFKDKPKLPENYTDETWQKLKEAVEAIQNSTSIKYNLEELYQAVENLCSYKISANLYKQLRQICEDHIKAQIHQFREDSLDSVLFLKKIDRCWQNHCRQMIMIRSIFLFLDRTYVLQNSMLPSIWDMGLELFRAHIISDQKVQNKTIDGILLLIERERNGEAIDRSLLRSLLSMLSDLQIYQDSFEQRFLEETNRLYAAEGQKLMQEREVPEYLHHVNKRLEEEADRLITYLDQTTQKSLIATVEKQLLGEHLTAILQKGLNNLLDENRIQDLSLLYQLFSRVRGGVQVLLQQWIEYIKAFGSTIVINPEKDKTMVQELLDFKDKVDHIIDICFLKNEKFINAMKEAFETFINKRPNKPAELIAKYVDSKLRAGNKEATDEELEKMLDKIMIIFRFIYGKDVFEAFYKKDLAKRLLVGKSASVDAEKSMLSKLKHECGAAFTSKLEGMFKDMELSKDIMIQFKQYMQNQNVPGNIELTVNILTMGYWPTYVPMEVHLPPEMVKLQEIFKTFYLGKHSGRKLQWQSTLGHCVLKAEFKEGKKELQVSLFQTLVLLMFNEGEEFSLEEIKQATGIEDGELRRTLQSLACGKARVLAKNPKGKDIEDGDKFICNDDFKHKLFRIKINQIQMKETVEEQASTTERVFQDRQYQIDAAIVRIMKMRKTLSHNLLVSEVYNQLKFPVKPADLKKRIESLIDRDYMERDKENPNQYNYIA
T2 sequence (P62877 whole entry partner): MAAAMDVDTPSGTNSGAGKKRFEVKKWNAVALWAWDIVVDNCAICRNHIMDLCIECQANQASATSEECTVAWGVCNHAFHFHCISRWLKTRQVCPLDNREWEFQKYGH
Protocol: as §1, §2, §3, §4

KBM7 CUL4Amut cells = assay: Cell viability assay, KBM7 CUL4A mutant; format: cell-based, human; conditions: Table 2, data of FIG. 6; 3-day treatment; read-out: LC50 CUL4Amut
Protocol: KBM7 cells with the specified genetic backgrounds were grown in IMDM supplemented with 10% FBS and 1% penicillin/streptomycin (pen/strep). AsPC1, HCT116, NCI-H446 and 293T cells were grown in DMEM 10% FBS and 1% pen/strep. MV4; 11, Jurkat and Be (2) C cells were grown in RPMI 10% FBS 1% pen/strep. KBM7, AsPC1 and HCT116 cells expressing Cas9 were generated using the plasmid Lenti_Cas9_Blasti (Addgene #52962). The lentiviral plasmid lentiGuide-Puro (Addgene #52963) was used to express sgRNAs against the genes UBE2M (in KBM7-Cas9, AsPC1-Cas9 and HCT116-Cas9 cells), UBE2G1 (in KBM7-Cas9 cells) and […] (in KBM7-Cas9 cells). The lentiviral plasmid lentiGuide-Puro-IRES-mCherry (modified from Addgene #52963) was used to express sgRNAs against CUL4A (in KBM7-Cas9 cells). The lentiviral plasmid pLenti-PGK-Hygro-DEST-UBE2M was generated by Gateway cloning (empty destination vector Addgene #19066), and used to generate UBE2M^resc KBM7 cells.
Validating the previous results, a strong enrichment for cells transduced with UBE2Mtargeting sgRNAs was detected. […] The fact that Rbx1 was not detected in the initial experiment is likely explained by the fact that prolonged loss of RBX1 function is detrimental to cellular fitness. […] To understand if the tested compounds were uniquely dependent on CUL4B over CUL4A, a differential drug efficacy was assessed in dose ranging viability assays in KBM7 WT cells and isogenic clones deficient in either CUL4A, CUL4B, and UBE2G1. […]
KBM7^WT, mutant KBM7 clones (UBE2M^mut, UBE2M^resc, UBE2G1^mut CUL4A^mut, CUL4B^mut), and 3-day doxycycline pretreated KBM7^iCas9_sgDDB1 cells were seeded at a cell density of 50,000 cells/mL in 96-well plates with DMSO or drug, in triplicates. […] Cells were treated for 3 days, after which cell viability was assessed according to manufacturer's protocol (CellTiter Glo, Promega G7570). Survival curves and EC50 values were calculated by best-fit analysis of the log 10 drug concentration to fold change of drug-treated cells over DMSO-treated cells. […]

T1 sequence (O75909 whole entry partner): as the sequence (O75909 whole entry partner) above
T1 sequence (Q9NYV4 whole entry, further chain): as the sequence (Q9NYV4 whole entry) above
T1 sequence (Q16531 2-1140 limits assumed, further chain): as the sequence (Q16531 2-1140 limits assumed) above
T1 sequence (Q13620 whole entry partner): as the sequence (Q13620 whole entry partner) above
T1 sequence (P62877 whole entry partner): as the sequence (P62877 whole entry partner) above

For Cc1ccc(C(=O)N2CSCC2C(=O)N=c2[nH]cc(C)s2)o1 (stereo not shown) [Compound T6938051], the CCNK destabilization [1] was “destabilization of cyclin K (CCNK)”, the “effect on CCNK upon inactivation of DDB1, UBE2G1 and UBE2M” value (“effect on CCNK upon inactivation of DDB1” below) (cyclin K (CCNK)) was “abrogated” and the CC50 (KBM7 CUL4Amut cells) was 2260 nM.

With O=C(CSc1nnc2c(n1)[nH]c1ccccc12)Nc1ccc(Cl)cn1 [IC020772.1] the CCNK destabilization [1] was “destabilization of cyclin K (CCNK)”, the “effect on CCNK upon inactivation of DDB1” value (cyclin K (CCNK)) was “abrogated” and the CC50 (KBM7 CUL4Amut cells) was 1220 nM.

For O=C(CSc1nc2ccccc2[nH]1)Nc1ccc(Cl)cn1 [IC021313.2], the CCNK destabilization [1] was “destabilization of cyclin K (CCNK)”, the “effect on CCNK upon inactivation of DDB1” value (cyclin K (CCNK)) was “abrogated” and the “logFC (IC021313.2/DMSO), CCNK (O75909-3)” value (cyclin K (CCNK); expression proteomics, drug vs DMSO, Table 4, log2FC < −0.3) was −0.873. The CC50 (KBM7 CUL4Amut cells) was 1560 nM.
